Measurements reported in PubChem BioAssay (NCI).
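Where inhibition never reached the appropriate level, the endpoint shown equals the highest concentration tested. Otherwise, values were interpolated linearly from a five-concentration, 48-hour dose response in 96-well plates. Here, GI50 denotes the concentration required for 50% inhibition of growth. TGI: total growth inhibition.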

Columns and labels:
Assay in all cases: growth of human tumour cells (NCI), 48 h
SNB-75 CNS = test system: SNB-75 CNS
T-47D breast = test system: T-47D breast
RPMI-8226 leukemia = test system: RPMI-8226 leukemia
SF-295 CNS = test system: SF-295 CNS
MDA-MB-231 breast = test system: MDA-MB-231 breast
MCF7 breast = test system: MCF7 breast
SK-OV-3 ovarian = test system: SK-OV-3 ovarian
OVCAR-3 ovarian = test system: OVCAR-3 ovarian
HCT-116 colon = test system: HCT-116 colon
MDA-MB-435 = test system: MDA-MB-435
CAKI-1 renal = test system: CAKI-1 renal

Row | SMILES | TGI (SNB-75 CNS) | TGI (T-47D breast) | TGI (RPMI-8226 leukemia) | TGI (SF-295 CNS) | TGI (MDA-MB-231 breast) | TGI (MCF7 breast) | TGI (SK-OV-3 ovarian) | TGI (OVCAR-3 ovarian) | TGI (HCT-116 colon) | TGI (MDA-MB-435) | TGI (CAKI-1 renal) | GI50 (SF-295 CNS) | GI50 (OVCAR-3 ovarian) | GI50 (HCT-116 colon) | GI50 (CAKI-1 renal) | GI50 (RPMI-8226 leukemia) | GI50 (MCF7 breast) | GI50 (MDA-MB-435)
1 | O=c1cc(-c2cccnc2)[nH]c2cc3c(cc12)OCO3 | 27.1 µM | > 100 µM | > 100 µM | > 38.5 µM | > 100 µM | > 100 µM | > 67 µM | > 20.7 µM | > 100 µM | 4.6 µM |  |  |  |  |  |  |  | 
2 | CC1C(C#N)(C#N)C(C#N)=C(N)C1(Cl)[N+](=O)[O-] (stereo not drawn) | 24.7 µM | 42.7 µM | 39.8 µM | 36.1 µM | 26.9 µM | 47.4 µM | 32.6 µM | 22 µM | 20.3 µM | 31.6 µM | 18.6 µM |  |  |  |  |  |  | 
3 | CC(=O)OC(Cc1c(O)c2c(C)cccc2oc1=O)C(C)(C)O (stereo not drawn) | > 100 µM | > 100 µM | > 100 µM | > 100 µM | > 100 µM | > 100 µM | > 100 µM | > 100 µM | > 100 µM | > 100 µM | > 100 µM |  |  |  |  |  |  | 
4 | Cc1n(Cc2ccccc2)nc2sc(N)n[n+]12 | > 100 µM | > 100 µM | > 100 µM | > 100 µM |  | > 100 µM | > 100 µM | > 100 µM | > 100 µM | > 100 µM | > 100 µM |  |  |  |  |  |  | 
5 | CSc1nc2c(c(=O)[nH]1)N=C(c1ccccc1)CC(c1ccccc1)N2 (stereo not drawn) | 44.6 µM |  | 71 µM | > 100 µM | 45.5 µM | 36 µM | 89.7 µM | > 100 µM | 97.5 µM | > 100 µM | > 100 µM |  |  |  |  |  |  | 
6 | CCOC(=O)NN(C(=O)OCC)c1c(C)cc(C)cc1C | > 100 µM | > 100 µM | > 100 µM |  | > 100 µM | > 100 µM | > 100 µM | > 100 µM | > 100 µM | > 100 µM | > 100 µM |  |  |  |  |  |  | 
7 | N#Cc1c(-c2ccccc2)c(CN2CCCCC2)c(=O)n2c1[nH]c1ccccc12 | > 100 µM | > 100 µM |  | > 100 µM | > 100 µM | > 100 µM | > 100 µM | 58.3 µM | > 100 µM | > 100 µM | > 100 µM |  |  |  |  |  |  | 
8 | O=C(c1cc2c(c3ccccc13)NC1(CCCCC1)N=C2C(F)(F)F)C(F)(F)F | 19.1 µM | 13.5 µM |  | 10.9 µM | 9.83 µM | 12.2 µM | 18.7 µM | 7.81 µM | 12.6 µM | 12.5 µM | 13.1 µM |  |  |  |  |  |  | 
9 | CC(=O)Nc1cccc(N=NN(C)C)c1 | > 100 µM |  | > 100 µM | > 100 µM |  | > 100 µM | > 100 µM | > 100 µM | > 100 µM |  | > 100 µM |  |  |  |  |  |  | 
10 | CC(=O)Oc1ccc2c3c1O[C@H]1[C@H](O)CC[C@@]4(O)[C@@H](C2)N(C)CC[C@]314 |  | > 100 µM | > 100 µM | > 100 µM | > 100 µM | > 100 µM | > 100 µM | > 100 µM | > 100 µM | > 100 µM | > 100 µM |  |  |  |  |  |  | 
11 | CCOC1CC(C)N(C(=O)c2ccccc2)O1 (stereo not drawn) |  | > 100 µM |  | > 100 µM | > 100 µM | > 100 µM | > 100 µM | > 100 µM | > 100 µM | > 100 µM |  |  |  |  |  |  |  | 
12 | Cc1cnc2[nH]c(-c3ccc4ccccc4c3)cc(=O)c2c1 | > 100 µM | > 100 µM | > 100 µM | > 100 µM |  | 8.68 µM | > 100 µM | 10.6 µM | 14.5 µM |  |  | 0.549 µM | 0.352 µM | 0.465 µM |  |  |  | 
13 | CCOC(=O)c1cccc(NC(=O)CI)c1 | 2.87 µM |  | 3.28 µM | 5.69 µM | 2.91 µM | 1.33 µM | 2.26 µM | 0.759 µM | 0.946 µM | 0.797 µM | 1.07 µM |  |  |  |  |  |  | 
14 | C#CC1(O)CCCCCCCCC2(CCCCCCCC1)OCCO2 |  | 33.8 µM | 22 µM | 34.7 µM |  | 36.3 µM | 33.2 µM | 29.3 µM | 30.4 µM | 33.5 µM | 24.7 µM |  |  |  |  |  |  | 
15 | O=C(N/N=C/c1cc(Br)cc(Br)c1[O-])c1ccccc1O.O=C(N/N=C/c1cc(Br)cc(Br)c1[O-])c1ccccc1O.[Co+2] | 15.3 µM |  |  | 12.6 µM |  |  | 5.57 µM | 3.6 µM | 17.7 µM |  | 5.93 µM |  |  |  |  |  |  | 
16 | COc1cc(OC)c2[nH]c3c(O)c(-c4c(C)cc5c([nH]c6c(OC)cc(OC)cc65)c4O)c(C)cc3c2c1 | 15.5 µM | 17.7 µM | 23.7 µM | 21.8 µM | 19.1 µM | 18.9 µM |  | 18.6 µM | 15.7 µM | 24.9 µM | 22.1 µM | 10.2 µM |  |  | 9.89 µM | 10.5 µM | 8.68 µM | 12 µM
17 | Nc1nc(-c2ccco2)cc(-c2ccc(CO)o2)n1 | > 100 µM |  | > 100 µM | > 100 µM |  |  |  | > 100 µM | > 100 µM |  |  |  |  |  |  |  |  | 
18 | CNc1nc(C(N)=O)c(N)s1 |  | > 100 µM | > 100 µM | > 100 µM | > 100 µM |  | > 100 µM | > 100 µM | > 100 µM | > 100 µM | > 100 µM |  |  |  |  |  |  | 
19 | ON=C(CC(O)(C(F)(F)Cl)C(F)(F)Cl)CC(O)(C(F)(F)Cl)C(F)(F)Cl | > 10 µM | > 10 µM | > 10 µM | > 10 µM |  | > 10 µM | > 10 µM | > 10 µM | > 10 µM | > 10 µM | > 10 µM |  |  |  |  |  |  | 
20 | CCOC(=O)c1nc2ccc(C(F)(F)F)cc2nc1Oc1ccc(C(=O)OC)cc1 | > 100 µM | > 100 µM | > 100 µM | > 100 µM | > 100 µM | > 100 µM | > 100 µM |  | > 100 µM | > 100 µM | > 100 µM |  |  |  |  |  |  | 
21 | CC1=C(C)SC(=C2Sc3nc(O)[nH]c(=O)c3S2)S1 | > 100 µM |  | > 100 µM | > 100 µM | > 100 µM | > 100 µM | > 100 µM | > 100 µM | > 100 µM | > 100 µM | > 100 µM |  |  |  |  |  |  | 
